Results taken from patent US20210238138A1, “Method for improving nucleation of crystals from solution” (Université Libre de Bruxelles, priority 2018, published 2021).

Tests used:
Format in all cases: physicochemical
[1] = Cooling crystallisation of Brivaracetam/IPAc in capillary tubing; conditions: 7 m tubing; for Appearance of crystals: 30 mL/min, 1 restriction, bath 20° C., initial 45° C.
Description: For example, following tests were made on Brivaracetam/IPAc (IsoPropylAcetate) at different concentrations. Induction time (appearance of crystals) is shown in table 1 for different increasing concentrations at a crystallization temperature of 20° C. after flowing through the tube at 30 mL/min in a 7 m long tubing.
(so same overall supersaturation). The variation in crystal size is shown without and with a 5 cm long 500 μm restriction. “Needles and rods” indicate appearance of concurring crystallizations of the two possible crystal types of Brivaracetam. Therefore the method also influences selectivity for one single crystal form. In the case of Brivaracetam, rods are preferred.
The advantage of using restriction(s) has already been indicated in previous tables. A series of tests was also performed using identical conditions and only changing the number of identical restrictions. In table 3, the tests were performed with restrictions of 1 mm in length and having an inner diameter of 500 μm. Crystal length decreases drastically when placing more restrictions in series in the tubing line.
Also different geometries of restriction were tested on Brivaracetam/IPAc mixtures: different lengths and different inner diameters.
(§1) The crystallization temperature is controlled by a water bath containing about 5 L of water, temperature is monitored at all times by a thermocouple. This water is cooled by a 1 m long cupper serpentine plunged into the bath with cooling liquid flowing from and to a cryothermostat, the water bath itself is agitated with a magnetic bar stirrer. The internal volume of a 7 m long tubing of […] is about 22 mL. As this volume is 220 times smaller than the volume of the present water it is assumed that the water temperature remains within a 0.5° C. or smaller margin of the set temperature value.

[2] = Solubility temperature and spontaneous nucleation temperature of aspirin solution; conditions: 200 mg/mL in 50/50 vol % ethanol/water
Source text: The transition time is defined as the time necessary to reach crystallization conditions in the used setup (i.e. time for a fluid particle flowing in the liquid to get from undersaturated conditions to nucleation conditions). Therefore, this time is at a given concentration dominated by the difference in temperature between the solubility temperature and the metastable zone width or MSZW. At temperatures below this MSZW the solute in solution starts to nucleate spontaneously. […] (both measured). The transition time is then defined as the time needed to overcome this 20° C. difference in temperature.

[3] = Cooling crystallisation of acetylsalicylic acid in ethanol/water in capillary tubing; conditions: 200 mg/mL 50 vol % ethanol/water, residence time 5.3 s, initial 65° C., bath 10° C.
Description: Tubing length should also be adapted when no antisolvent is added to the molecule/solvent solution.
as §1
This reduction in size has to be performed in order to increase the reigning Reynolds number inside the restriction at set flow rates and concentrations.
For example, in a series of tests, an identical total residence time inside the tubing of 5.3 s was respected. A solution of 200 mg/mL aspirin in 50 vol % ethanol/water was used; at different flow rates. This means that the total length of the tubing inside the water bath was varied according to the set flow rate in order to retain the 5.3 s residence time.

[4] = test 2: 600 mg/mL in IPAc, Tc 0° C., σ 11, Q 43 mL/min, no restriction
[5] = test 3: 600 mg/mL in IPAc, Tc 0° C., σ 11, Q 32 mL/min, no restriction
[6] = test 4: 600 mg/mL in IPAc, Tc 0° C., σ 11, Q 21 mL/min, no restriction
[7] = test 6: 600 mg/mL in IPAc, Tc 0° C., σ 11, Q 43 mL/min, restriction 5 cm long, 500 μm
[8] = test 7: 600 mg/mL in IPAc, Tc 0° C., σ 11, Q 32 mL/min, restriction 5 cm long, 500 μm
[9] = test 8: 600 mg/mL in IPAc, Tc 0° C., σ 11, Q 21 mL/min, restriction 5 cm long, 500 μm
[10] = test 9: 400 mg/mL in IPAc, Tc 10° C., σ 4.7, Q 30 mL/min, 0 restrictions
[11] = test 9 as listed in Table 4: 400 mg/mL in IPAc, Tc 10° C., σ 4.7, Q 30 mL/min, restriction none
[12] = test 10: 400 mg/mL in IPAc, Tc 10° C., σ 4.7, Q 30 mL/min, 1 restriction 1 mm long, 500 μm
[13] = test 11: 400 mg/mL in IPAc, Tc 10° C., σ 4.7, Q 30 mL/min, 1 restriction 1 mm long, 500 μm
[14] = test 12: 400 mg/mL in IPAc, Tc 10° C., σ 4.7, Q 30 mL/min, 2 restrictions 1 mm long, 500 μm
[15] = test 13: 400 mg/mL in IPAc, Tc 10° C., σ 4.7, Q 30 mL/min, 2 restrictions 1 mm long, 500 μm
[16] = test 14: 400 mg/mL in IPAc, Tc 10° C., σ 4.7, Q 30 mL/min, 3 restrictions 1 mm long, 500 μm
[17] = test 15: 400 mg/mL in IPAc, Tc 10° C., σ 4.7, Q 30 mL/min, 3 restrictions 1 mm long, 500 μm
[18] = test 16: 400 mg/mL in IPAc, Tc 10° C., σ 4.7, Q 30 mL/min, 4 restrictions 1 mm long, 500 μm
[19] = test 17: 400 mg/mL in IPAc, Tc 10° C., σ 4.7, Q 30 mL/min, one restriction length 5 cm, diameter 500 μm
[20] = test 18: 400 mg/mL in IPAc, Tc 10° C., σ 4.7, Q 30 mL/min, one restriction length 5 cm, diameter 750 μm
[21] = test 19: 400 mg/mL in IPAc, Tc 10° C., σ 4.7, Q 30 mL/min, one restriction length 20 cm, diameter 500 μm
[22] = test 20: 400 mg/mL in IPAc, Tc 10° C., σ 4.7, Q 30 mL/min, one restriction length 50 cm, diameter 500 μm
[23] = test 21: 400 mg/mL in IPAc, Tc 10° C., σ 4.7, Q 30 mL/min, one restriction length 100 cm, diameter 500 μm

With `CCC[C@@H]1CC(=O)N([C@@H](CC)C(N)=O)C1` [Brivaracetam] the Appearance of crystals ([1]; 150 mg/mL in IPAc, supersaturation 0.09) was “None”, the Appearance of crystals ([1]; 200 mg/mL in IPAc, supersaturation 0.47) was “None” and the Appearance of crystals ([1]; 250 mg/mL in IPAc, supersaturation 0.83) was 20 h. The Appearance of crystals ([1]; 300 mg/mL in IPAc, supersaturation 1.21) was 2 h, the Appearance of crystals ([1]; 350 mg/mL in IPAc, supersaturation 1.57) was 0.5 h and the Appearance of crystals ([1]; 400 mg/mL in IPAc, supersaturation 1.94) was “Immediate”. For the same molecule, the Appearance of crystals ([1]; 500 mg/mL in IPAc, supersaturation 2.68) was “Immediate”, the Appearance of crystals ([1]; 600 mg/mL in IPAc, supersaturation 3.41) was “Immediate, white slurry” and the Appearance of crystals ([1]; 800 mg/mL in IPAc, supersaturation 4.88) was “Immediate, white slurry”. For the same molecule, the Appearance crystals ([1]; test 1: 600 mg/mL in IPAc, Tc 0° C., σ 11, Q 54 mL/min, no restriction) was “Needles”, the Appearance crystals [1, 4] was “Rods” and the Crystal length [1, 4] was 1020 ± 196 μm. The “J (nucleation rate)” value [1, 4] was 2 100 mL^−1 · s^−1, the Appearance crystals [1, 5] was “Rods” and the Crystal length [1, 5] was 365 ± 106 μm. For the same molecule, the “J (nucleation rate)” value [1, 5] was 43 000 mL^−1 · s^−1, the Appearance crystals [1, 6] was “Rods” and the Crystal length [1, 6] was 258 ± 76 μm. For the same molecule, the “J (nucleation rate)” value [1, 6] was 121 000 mL^−1 · s^−1, the Appearance crystals ([1]; test 5: 600 mg/mL in IPAc, Tc 0° C., σ 11, Q 54 mL/min, restriction 5 cm long, 500 μm) was “Needles” and the Appearance crystals [1, 7] was “Rods”. The Crystal length [1, 7] was 227 ± 64 μm, the “J (nucleation rate)” value [1, 7] was 181 000 mL^−1 · s^−1 and the Appearance crystals [1, 8] was “Rods”. For the same molecule, the Crystal length [1, 8] was 121 ± 33 μm, the “J (nucleation rate)” value [1, 8] was 1 200 000 mL^−1 · s^−1 and the Appearance crystals [1, 9] was “Rods”. For the same molecule, the Crystal length [1, 9] was 175 ± 100 μm, the “J (nucleation rate)” value [1, 9] was 400 000 mL^−1 · s^−1 and the Appearance crystals [1, 10] was “Rods”. The Crystal length [1, 10] was 195 μm, the “J (nucleation rate)” value [1, 10] was 66 000 mL.^−1s^−1 and the Appearance crystals [1, 11] was “Rods”. The Crystal length [1, 11] was 195 μm, the “J (nucleation rate)” value [1, 11] was 131 000 mL^−1 · s^−1 and the Appearance crystals [1, 12] was “Rods”. For the same molecule, the Crystal length [1, 12] was 62 μm, the “J (nucleation rate)” value [1, 12] was 3 085 000 mL.^−1s^−1 and the Appearance crystals [1, 13] was “Rods”. The Crystal length [1, 13] was 62 μm, the “J (nucleation rate)” value [1, 13] was 1 609 000 mL.^−1s^−1 and the Appearance crystals [1, 14] was “Rods”. The Crystal length [1, 14] was 46 μm, the “J (nucleation rate)” value [1, 14] was 8 500 000 mL.^−1s^−1 and the Appearance crystals [1, 15] was “Rods”. For the same molecule, the Crystal length [1, 15] was 43 μm, the “J (nucleation rate)” value [1, 15] was 7 300 000 mL.^−1s^−1 and the Appearance crystals [1, 16] was “Rods”. For the same molecule, the Crystal length [1, 16] was 37 μm, the “J (nucleation rate)” value [1, 16] was 12 000 000 mL.^−1s^−1 and the Appearance crystals [1, 17] was “Rods”. For the same molecule, the Crystal length [1, 17] was 40 μm, the “J (nucleation rate)” value [1, 17] was 11 500 000 mL.^−1s^−1 and the Appearance crystals [1, 18] was “Rods”. For the same molecule, the Crystal length [1, 18] was 35 μm, the “J (nucleation rate)” value [1, 18] was 9 700 000 mL.^−1s^−1 and the Appearance crystals [1, 19] was “Rods”. The Crystal length [1, 19] was 143 μm, the “J (nucleation rate)” value [1, 19] was 310 000 mL^−1 · s^−1 and the Appearance crystals [1, 20] was “Rods”. For the same molecule, the Crystal length [1, 20] was 120 μm, the “J (nucleation rate)” value [1, 20] was 500 000 mL^−1 · s^−1 and the Appearance crystals [1, 21] was “Rods”. For the same molecule, the Crystal length [1, 21] was 95 μm, the “J (nucleation rate)” value [1, 21] was 642 000 mL^−1 · s^−1 and the Appearance crystals [1, 22] was “Rods”. The Crystal length [1, 22] was 207 μm, the “J (nucleation rate)” value [1, 22] was 132 000 mL^−1 · s^−1 and the Appearance crystals [1, 23] was “Rods”. The Crystal length [1, 23] was 211 μm and the “J (nucleation rate)” value [1, 23] was 107 000 mL^−1 · s^−1.

With `CC(=O)Oc1ccccc1C(=O)O` [Acetylsalicylic acid, acetylsalicylic acid] the Solubility temperature [2] was 40 °C, the “Temperature at which spontaneous nucleation starts” value [2] was 20 °C and the Crystal length ([3]; tubing ID 750 μm, flow rate 20 mL/min, tubing length 4.2 m) was 377 μm. For the same molecule, the “Nucleation rate J” value ([3]; tubing ID 750 μm, flow rate 30 mL/min, tubing length 6.2 m) was 170 000 mL^−1 · s−^1, the Crystal length ([3]; tubing ID 1000 μm, flow rate 30 mL/min, tubing length 3.6 m) was 495 μm and the Crystal length ([3]; tubing ID 1000 μm, flow rate 40 mL/min, tubing length 4.7 m) was 416 μm.
